Where “and” joins values, the source holds several entries; their conditions need not be identical. Equal values may be shown once.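 Briefly, cells in 96-well plates were exposed to five compound concentrations for 48 h, and endpoints were estimated by linear interpolation. GI50: concentration for 50% inhibition of growth. TGI is the concentration that stops growth completely.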

The record followed here is PubChem BioAssay (NCI).

Test systems include U251 CNS; A549 NSCLC; BT-549 breast; OVCAR-8 ovarian; SW-620 colon; HCT-116 colon; T-47D breast; UACC-62 melanoma; SNB-75 CNS; NCI-H226 lung.
Common to all, as to experiment: NCI-60 cell line screen, 48 h

In the case of `Cc1cn2c(/C=N/Nc3ccccn3)c(-c3ccc(Cl)c([N+](=O)[O-])c3)nc2s1`, the GI50 in the assay on U251 CNS was 8.22 µM; in the assay on A549 NSCLC, 8.7 µM; in the assay on BT-549 breast, 21.1 µM; in the assay on OVCAR-8 ovarian, 8.96 µM; in the assay with SW-620 colon, 44.1 µM; with HCT-116 colon, 8.56 µM. For the same compound, the GI50 with T-47D breast was more than 50 µM; with UACC-62 melanoma it was 14.1 µM. Further, the TGI is 15.4 µM with U251 CNS; 21.9 µM with A549 NSCLC; more than 50 µM in the assay on BT-549 breast; 19.8 µM in the assay with OVCAR-8 ovarian; more than 50 µM with SW-620 colon; 18.4 µM with HCT-116 colon. The TGI in the assay on T-47D breast is more than 50 µM; in the assay with UACC-62 melanoma, 46.3 µM.

As to `CN(C)c1ccc(C(=C2C=CC(=[N+](C)C)C=C2)c2ccc(N(C)C)cc2)cc1`, the GI50 in the assay on U251 CNS was 0.0462 µM; with BT-549 breast, 0.18 µM; in the assay on SNB-75 CNS, 0.112 µM; with SW-620 colon it was 0.0693 µM; in the assay on HCT-116 colon, 0.0363 µM; with T-47D breast it was 0.157 µM. Also, the GI50 in the assay on UACC-62 melanoma is 0.261 µM. The TGI with U251 CNS was 0.565 µM and 1.14 µM; in the assay with A549 NSCLC it was 1.2 µM and 2.48 µM; in the assay on BT-549 breast it was 0.621 µM; in the assay with SNB-75 CNS, 0.581 µM and 1.03 µM; with SW-620 colon, 1.23 µM; with HCT-116 colon it was 0.36 µM. Moreover, the TGI in the assay with T-47D breast stood at 1.12 µM; in the assay on UACC-62 melanoma, 1 µM.

Turning to `CCOC(=O)C1=C(Nc2cccc3ccccc23)OC/C1=N\NC(=O)c1ccccc1O`, the TGI was more than 100 µM with U251 CNS; more than 100 µM with A549 NSCLC; 39.5 µM in the assay with SNB-75 CNS; 67.8 µM in the assay with OVCAR-8 ovarian; more than 100 µM in the assay with NCI-H226 lung; more than 100 µM in the assay with SW-620 colon. Besides, the TGI was more than 69.6 µM in the assay with HCT-116 colon and 48.9 µM in the assay with UACC-62 melanoma.

Consider `COc1cccc2nc3cc(C)c(C)cc3nc12`, for which the TGI in the assay on U251 CNS, with A549 NSCLC, in the assay on SNB-75 CNS, in the assay with OVCAR-8 ovarian, with NCI-H226 lung and in the assay with SW-620 colon was more than 100 µM in each case. Moreover, the TGI in the assay with HCT-116 colon and with UACC-62 melanoma was more than 100 µM in each case.

Consider `COC(=O)C1=C(O)c2cc3c(cc2[C@H](c2cc(OC)c(OC)c(OC)c2)C1C(=O)OC)OCO3` (stereo partly drawn), for which the TGI is more than 100 µM in the assay on U251 CNS; more than 100 µM with A549 NSCLC; 66 µM in the assay with SNB-75 CNS; more than 100 µM in the assay with OVCAR-8 ovarian; more than 100 µM in the assay with NCI-H226 lung; more than 100 µM in the assay on SW-620 colon. Besides, the results for the TGI in the assay on HCT-116 colon and in the assay on UACC-62 melanoma were more than 100 µM and 99.4 µM, respectively.

Regarding `CCC(/C=C/c1ccccc1)=N\Nc1ccc(Cl)c(Cl)c1`, the TGI in the assay on U251 CNS is more than 100 µM; in the assay on A549 NSCLC it was more than 100 µM; in the assay on SNB-75 CNS it was more than 100 µM; with OVCAR-8 ovarian, 39.6 µM; with NCI-H226 lung, 72.7 µM; with SW-620 colon, more than 100 µM. Besides, the TGI with HCT-116 colon was more than 100 µM; in the assay on T-47D breast, more than 100 µM; in the assay on UACC-62 melanoma it was 31.5 µM.

Take `COC(=O)C1=C(C(=O)OC)SC(=C(N=Nc2ccccc2)c2ccccc2)S1`: the TGI in the assay on U251 CNS, with A549 NSCLC, in the assay with SNB-75 CNS, in the assay with OVCAR-8 ovarian, with NCI-H226 lung and in the assay with SW-620 colon was more than 100 µM throughout. In addition, the TGI with HCT-116 colon and in the assay with UACC-62 melanoma was more than 100 µM in each case.

Consider `O=C(Nc1nc(=S)c2c(ncn2CCO)[nH]1)c1ccccc1`, for which the TGI in the assay with U251 CNS, in the assay with A549 NSCLC, in the assay with SNB-75 CNS, in the assay with OVCAR-8 ovarian, with NCI-H226 lung and in the assay on SW-620 colon was more than 100 µM each time. Moreover, the TGI with HCT-116 colon and with UACC-62 melanoma was more than 100 µM each time.

Consider `Nc1cc(N)c2nc(-c3ccccc3)c(NCc3ccc(F)cc3)nc2c1`, for which the GI50 in the assay on U251 CNS is 1.6 µM; in the assay with A549 NSCLC, 17.6 µM; in the assay on BT-549 breast, 1.69 µM; in the assay with SNB-75 CNS, 2.16 µM; with OVCAR-8 ovarian, 2.66 µM; in the assay with NCI-H226 lung it was 22.4 µM. The results for the GI50 with SW-620 colon, with HCT-116 colon and in the assay on UACC-62 melanoma were 2.21 µM, 12.8 µM and 15.4 µM, respectively. Also, the TGI with U251 CNS was determined as 3.16 µM; in the assay on A549 NSCLC, 34.9 µM; with BT-549 breast it was 3.26 µM; with SNB-75 CNS it was 5.06 µM; in the assay on OVCAR-8 ovarian, 6.07 µM; in the assay on NCI-H226 lung, 47.7 µM. For the same compound, the TGI with SW-620 colon was 9.52 µM; with HCT-116 colon, more than 100 µM; in the assay with UACC-62 melanoma, 29.5 µM.

Turning to `O=c1[nH]c(-c2ccc(-c3nc4cc([N+](=O)[O-])ccc4c(=O)[nH]3)cc2)nc2cc([N+](=O)[O-])ccc12`, the TGI in the assay with U251 CNS, in the assay on A549 NSCLC, in the assay on SNB-75 CNS, in the assay on OVCAR-8 ovarian, in the assay with NCI-H226 lung and with SW-620 colon was more than 100 µM each time. For the same compound, the TGI in the assay on HCT-116 colon and in the assay with UACC-62 melanoma was more than 100 µM throughout.

As for `C=C1CCc2occ(C)c2C2C1C1=C(CC(C)C1=O)C1OC12C` (stereo not drawn), the TGI in the assay with U251 CNS, in the assay with A549 NSCLC, in the assay with SNB-75 CNS, in the assay on OVCAR-8 ovarian, in the assay with NCI-H226 lung and in the assay on SW-620 colon was more than 100 µM each time. In addition, the TGI with HCT-116 colon and in the assay on UACC-62 melanoma was more than 100 µM throughout.

Regarding `CCOC(=O)c1nc(Nc2ccc(Cl)cc2)c2ccccc2n1`, the GI50 was 8.86 µM with U251 CNS; 11.3 µM in the assay on A549 NSCLC; 10.2 µM in the assay on BT-549 breast; 11.9 µM in the assay on SNB-75 CNS; 12.3 µM in the assay on OVCAR-8 ovarian; 17.2 µM in the assay with SW-620 colon. The figures for the GI50 in the assay with HCT-116 colon, in the assay with T-47D breast and with UACC-62 melanoma were 25.1 µM, 8.36 µM and 10 µM, respectively. Besides, the TGI with U251 CNS is 18.5 µM; with A549 NSCLC it was 26.2 µM; with BT-549 breast it was 25.5 µM; in the assay with SNB-75 CNS, 29.5 µM; in the assay on OVCAR-8 ovarian, 28.5 µM; in the assay on SW-620 colon it was more than 50 µM. The TGI with HCT-116 colon was more than 50 µM; in the assay on T-47D breast, 22.5 µM; with UACC-62 melanoma, 20.5 µM.

As for `C1CCOC2(CCC3(CC2)OCCCCO3)OC1`, the TGI in the assay on U251 CNS, in the assay on A549 NSCLC, with SNB-75 CNS, with OVCAR-8 ovarian, with NCI-H226 lung and in the assay with SW-620 colon was more than 100 µM each time. Further, the TGI with HCT-116 colon and in the assay on UACC-62 melanoma was more than 100 µM in each case.

Regarding `CC(=O)NC1CC2Oc3ccc(C)cc3C(C)(O2)C1O` (stereo not drawn), the TGI in the assay with U251 CNS, in the assay with A549 NSCLC, in the assay with SNB-75 CNS, with OVCAR-8 ovarian, with NCI-H226 lung and in the assay on SW-620 colon was more than 100 µM each time. In addition, the TGI in the assay with HCT-116 colon and in the assay with UACC-62 melanoma was more than 100 µM throughout.

Regarding `CCCOc1nc(SCCC)nc2c1cnn2-c1ccccc1`, the GI50 with U251 CNS, with A549 NSCLC, in the assay on SNB-75 CNS, in the assay on OVCAR-8 ovarian, with NCI-H226 lung and with SW-620 colon was more than 100 µM in each case. For the same compound, the GI50 with HCT-116 colon was 55.3 µM; in the assay on T-47D breast, more than 100 µM; with UACC-62 melanoma, more than 100 µM. Besides, the TGI in the assay with U251 CNS, in the assay with A549 NSCLC, with SNB-75 CNS, in the assay with OVCAR-8 ovarian, in the assay on NCI-H226 lung and in the assay with SW-620 colon was more than 100 µM throughout. Also, the TGI in the assay with HCT-116 colon, with T-47D breast and in the assay with UACC-62 melanoma was more than 100 µM each time.

On to `C[C@@H](NC1CCC[C@H]1O)c1ccccc1` (stereo partly drawn), for which the TGI in the assay with U251 CNS, with A549 NSCLC, in the assay on SNB-75 CNS, in the assay on OVCAR-8 ovarian, in the assay with NCI-H226 lung and with SW-620 colon was more than 100 µM in each case. The TGI in the assay with HCT-116 colon and with UACC-62 melanoma was more than 100 µM in each case.

Turning to `O=C1NC2C=CN(Cc3ccccc3)C=C2C(=O)N2CCCC12` (stereo not drawn), the TGI with U251 CNS, in the assay on A549 NSCLC, in the assay on SNB-75 CNS, in the assay on OVCAR-8 ovarian, in the assay on NCI-H226 lung and in the assay on SW-620 colon was more than 100 µM each time. Also, the TGI in the assay with HCT-116 colon and in the assay on UACC-62 melanoma was more than 100 µM throughout.

Turning to `O=C(COc1cccc(/C=C2\COc3ccc(Cl)cc3C2=O)c1)c1ccc(Cl)cc1`, the GI50 is 13.8 µM in the assay with U251 CNS; 16.3 µM with A549 NSCLC; 4.73 µM in the assay on SNB-75 CNS; 15.8 µM with OVCAR-8 ovarian; 14.1 µM in the assay on NCI-H226 lung; 3.3 µM with SW-620 colon. Also, the figures for the GI50 with HCT-116 colon, with T-47D breast and with UACC-62 melanoma were 3.28 µM, 11.4 µM and 11 µM, respectively. Moreover, the TGI was determined as 26.7 µM in the assay on U251 CNS; 32.1 µM with A549 NSCLC; 22.2 µM in the assay on SNB-75 CNS; 37.5 µM in the assay with OVCAR-8 ovarian; 31.2 µM in the assay with NCI-H226 lung; 13 µM in the assay on SW-620 colon. Besides, the TGI in the assay with HCT-116 colon is 11.3 µM; in the assay with T-47D breast, 26.1 µM; in the assay on UACC-62 melanoma it was 23.1 µM.

`CS/C(=N\c1nccs1)NC(=O)c1cccc(Cl)c1`: the TGI with U251 CNS, in the assay with A549 NSCLC, in the assay on SNB-75 CNS, in the assay on OVCAR-8 ovarian, in the assay on NCI-H226 lung and in the assay with SW-620 colon was more than 100 µM in each case. Further, the TGI with HCT-116 colon and in the assay on UACC-62 melanoma was more than 100 µM in each case.
